According to PubChem BioAssay AID192 (DTP/NCI, 2004):
“And” between values parts separate entries of the source, which are not always exact repeats. Equal values may be shown once. Toxic doses and inconclusive results are not listed.

Tested on: BDF1 mice, B16 melanoma ip, median survival T/C
Experiment: NCI In Vivo Anticancer Drug Screen. Data for tumor model B16 Melanoma (intraperitoneal) in B6D2F1 (BDF1) mice
Settings: endpoint: median survival time, schedule: Q01DX009 (ip), higher = longer survival
Outline: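 Survival or tumor size is measured after treatment of tumor-bearing mice and normalised to the vehicle-treated control group.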

[1] = dose: 25.0 mg/kg/injection, vehicle: saline
[2] = dose: 50.0 mg/kg/injection, vehicle: saline
[3] = dose: 200.0 mg/kg/injection, vehicle: saline
[4] = dose: 100.0 mg/kg/injection, vehicle: Klucel (hydroxypropylcellulose) (HPC)
[5] = dose: 200.0 mg/kg/injection, vehicle: Klucel (hydroxypropylcellulose) (HPC)
[6] = dose: 400.0 mg/kg/injection, vehicle: Klucel (hydroxypropylcellulose) (HPC)
[7] = dose: 12.5 mg/kg/injection, vehicle: saline

SMILES: N[C@@H](Cc1ccc(O)c(O)c1)C(=O)O
- T/C [1]: 109 % of control
- T/C [2]: 98 % of control and 100 % of control
- T/C (dose: 100.0 mg/kg/injection, vehicle: saline): 102 % of control and 104 % of control
- T/C [3]: 102 % of control and 108 % of control
- T/C (dose: 400.0 mg/kg/injection, vehicle: saline): 97 % of control and 104 % of control

SMILES: CCN(N=Nc1ccc(C)cc1)N=Nc1ccc(C)cc1
- T/C [4]: 90 % of control
- T/C [5]: 96 % of control
- T/C [6]: 86 % of control

SMILES: COC(=O)C1C2CC3c4[nH]c5cc(OC)ccc5c4CCN3CC2CC(OC)C1OC (stereo unspecified)
- T/C (dose: 0.25 mg/kg/injection, vehicle: saline): 102 % of control
- T/C (dose: 0.5 mg/kg/injection, vehicle: saline): 94 % of control
- T/C (dose: 1.0 mg/kg/injection, vehicle: saline): 105 % of control
- T/C (dose: 1.56 mg/kg/injection, vehicle: saline): 100 % of control
- T/C (dose: 3.12 mg/kg/injection, vehicle: saline): 98 % of control
- T/C (dose: 4.0 mg/kg/injection, vehicle: saline): 94 % of control and 100 % of control
- T/C (dose: 6.25 mg/kg/injection, vehicle: saline): 103 % of control
- T/C (dose: 8.0 mg/kg/injection, vehicle: saline): 104 % of control
- T/C [7]: 106 % of control
- T/C (dose: 16.0 mg/kg/injection, vehicle: saline): 99 % of control
- T/C [1]: 101 % of control
- T/C (dose: 32.0 mg/kg/injection, vehicle: saline): 94 % of control

SMILES: C(=N\OCc1ccccc1)/c1ccccn1
- T/C [4]: 101 % of control
- T/C [5]: 101 % of control
- T/C [6]: 97 % of control

SMILES: Cc1cccc(NS(=O)(=O)c2ccc(Cl)cc2)c1C
- T/C (dose: 75.0 mg/kg/injection, vehicle: Klucel (hydroxypropylcellulose) (HPC)): 91 % of control
- T/C (dose: 150.0 mg/kg/injection, vehicle: Klucel (hydroxypropylcellulose) (HPC)): 95 % of control
- T/C (dose: 300.0 mg/kg/injection, vehicle: Klucel (hydroxypropylcellulose) (HPC)): 90 % of control

SMILES: COc1cccc2c1C(=O)c1c(O)c3c(c(O)c1C2=O)C[C@@](O)(C(=O)CO)C[C@@H]3OC1CC(NC=O)C(O)C(C)O1 (stereo partly specified)
- T/C (dose: 1.56 mg/kg/injection, vehicle: other): 118 % of control
- T/C (dose: 6.25 mg/kg/injection, vehicle: other): 185 % of control
- T/C (dose: 12.5 mg/kg/injection, vehicle: other): 171 % of control and 203 % of control
- T/C (dose: 25.0 mg/kg/injection, vehicle: other): 194 % of control
- T/C (dose: 50.0 mg/kg/injection, vehicle: other): 198 % of control and 259 % of control
- T/C (dose: 100.0 mg/kg/injection, vehicle: other): 259 % of control

SMILES: CCCN(CCC)CCCCCCO
- T/C (dose: 50.0 mg/kg/injection, vehicle: saline with Tween-80): 102 % of control
- T/C (dose: 100.0 mg/kg/injection, vehicle: saline with Tween-80): 102 % of control
- T/C (dose: 200.0 mg/kg/injection, vehicle: saline with Tween-80): 99 % of control

SMILES: COc1cc([NH-])c([NH-])cc1OC.[Cl][Pt+2][Cl]
- T/C (dose: 10.0 mg/kg/injection, vehicle: saline with Tween-80): 97 % of control
- T/C (dose: 20.0 mg/kg/injection, vehicle: saline with Tween-80): 104 % of control
- T/C (dose: 40.0 mg/kg/injection, vehicle: saline with Tween-80): 103 % of control
- T/C (dose: 80.0 mg/kg/injection, vehicle: saline with Tween-80): 104 % of control
- T/C (dose: 160.0 mg/kg/injection, vehicle: saline with Tween-80): 94 % of control

SMILES: NCC(c1ccccc1)c1ccccc1
- T/C [7]: 100 % of control
- T/C [1]: 91 % of control
- T/C [2]: 91 % of control

SMILES: CC(CO)NC(=O)C1C=C2c3cccc4[nH]cc(c34)CC2N(C)C1 (stereo unspecified)
- T/C [1]: 91 % of control
- T/C [2]: 91 % of control
- T/C [3]: 86 % of control
